Molecular target: T1, SMARCA2 (Homo sapiens, UniProt P51531)
T1 construct: endogenous in cells
Experiment: SMARCA2 HiBiT degradation assay (cellular)
Type: cell-based
Conditions: for Emax: A549, Emax = amount of residual protein remaining in the cell following compound treatment; for DC50: SMARCA2 HiBiT cells, luminescence readout, 11-point titration from 10 μM, 6 hours or 16 hours, read-out: HiBit A549 SMARCA2 IP

T1 sequence (P51531 whole entry): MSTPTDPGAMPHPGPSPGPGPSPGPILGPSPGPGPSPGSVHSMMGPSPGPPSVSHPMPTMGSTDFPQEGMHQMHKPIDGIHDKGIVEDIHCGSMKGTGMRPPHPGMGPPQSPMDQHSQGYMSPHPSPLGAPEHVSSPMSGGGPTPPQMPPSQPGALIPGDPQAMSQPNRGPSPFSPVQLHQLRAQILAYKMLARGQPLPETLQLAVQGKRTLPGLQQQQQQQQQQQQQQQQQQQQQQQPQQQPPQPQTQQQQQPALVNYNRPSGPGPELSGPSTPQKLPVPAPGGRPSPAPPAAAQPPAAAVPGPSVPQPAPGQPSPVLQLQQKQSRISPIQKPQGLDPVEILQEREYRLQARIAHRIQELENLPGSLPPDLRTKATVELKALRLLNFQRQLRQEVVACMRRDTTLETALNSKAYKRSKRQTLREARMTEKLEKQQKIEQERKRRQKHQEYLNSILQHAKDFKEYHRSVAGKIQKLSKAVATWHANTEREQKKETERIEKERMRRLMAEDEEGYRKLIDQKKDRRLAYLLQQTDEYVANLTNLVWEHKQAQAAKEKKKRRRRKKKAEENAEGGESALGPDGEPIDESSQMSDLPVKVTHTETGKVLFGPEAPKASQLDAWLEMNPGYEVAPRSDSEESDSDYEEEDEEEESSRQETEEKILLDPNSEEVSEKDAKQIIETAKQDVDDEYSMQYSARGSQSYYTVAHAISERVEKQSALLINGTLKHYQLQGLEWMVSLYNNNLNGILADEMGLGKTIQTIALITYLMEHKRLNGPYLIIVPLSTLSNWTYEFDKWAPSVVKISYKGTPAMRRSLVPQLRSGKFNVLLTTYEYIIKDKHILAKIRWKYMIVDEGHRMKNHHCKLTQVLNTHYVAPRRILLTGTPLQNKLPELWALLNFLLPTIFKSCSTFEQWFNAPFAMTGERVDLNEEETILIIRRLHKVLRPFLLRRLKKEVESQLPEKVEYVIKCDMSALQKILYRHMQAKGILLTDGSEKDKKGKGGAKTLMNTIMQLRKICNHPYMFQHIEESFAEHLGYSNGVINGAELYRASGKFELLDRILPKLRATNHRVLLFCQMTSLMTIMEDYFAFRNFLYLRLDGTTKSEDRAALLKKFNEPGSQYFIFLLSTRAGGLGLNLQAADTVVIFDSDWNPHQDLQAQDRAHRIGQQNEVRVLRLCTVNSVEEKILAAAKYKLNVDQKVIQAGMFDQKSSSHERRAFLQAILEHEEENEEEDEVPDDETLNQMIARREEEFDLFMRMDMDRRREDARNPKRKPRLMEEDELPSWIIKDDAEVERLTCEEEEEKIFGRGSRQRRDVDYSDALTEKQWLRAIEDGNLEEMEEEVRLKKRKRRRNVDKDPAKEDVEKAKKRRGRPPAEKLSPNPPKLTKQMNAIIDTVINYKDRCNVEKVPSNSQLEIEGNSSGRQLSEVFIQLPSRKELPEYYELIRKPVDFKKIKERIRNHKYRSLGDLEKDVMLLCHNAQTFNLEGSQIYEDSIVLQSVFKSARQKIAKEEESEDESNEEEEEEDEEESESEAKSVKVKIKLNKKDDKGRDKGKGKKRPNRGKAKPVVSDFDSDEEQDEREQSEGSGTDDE

SMILES | Emax [%] | DC50 [nM]
Cc1ncsc1-c1ccc([C@H](C)NC(=O)[C@@H]2C[C@@H](O)CN2C(=O)[C@@H](NC(=O)CCCCCCNC(=O)C(c2ccccc2)n2cc(-c3cc(-c4ccccc4O)nnc3N)cn2)C(C)(C)C)cc1 (mixture of isomers) [Example 75, rac-(2S,4R)-4-hydroxy-1-[rac-(2S)-2-[7-[[2-[4-[3-amino-6-(2-hydroxyphenyl)pyridazin-4-yl]pyrazol-1-yl]-2-phenyl-acetyl]amino]heptanoylamino]-3,3-dimethyl-butanoyl]-N-[rac-(1S)-1-[4-(4-methylthiazol-5-yl)phenyl]ethyl]pyrrolidine-2-carboxamide] | 26 | 777
Cc1ncsc1-c1ccc([C@H](C)NC(=O)[C@@H]2C[C@@H](O)CN2C(=O)[C@@H](NC(=O)CCCCCCCCCCCCC(=O)N2CCN(c3ccc(N4CCCC(Oc5cc(-c6ccccc6O)nnc5N)C4)cc3)CC2)C(C)(C)C)cc1 (mixture of isomers) [Example 76, rac-(2S,4R)-4-hydroxy-1-[rac-(2S)-2-[[14-[4-[4-[3-[3-amino-6-(2-hydroxyphenyl)pyridazin-4-yl]oxy-1-piperidyl]phenyl]piperazin-1-yl]-14-oxo-tetradecanoyl]amino]-3,3-dimethyl-butanoyl]-N-[rac-(1S)-1-[4-(4-methylthiazol-5-yl)phenyl]ethyl]pyrrolidine-2-carboxamide] | 31 | 207
Cc1ncsc1-c1ccc([C@H](C)NC(=O)[C@@H]2C[C@@H](O)CN2C(=O)[C@@H](NC(=O)CCCCCC(=O)N2CCN(CCOc3ccc(N4CCCC(Oc5cc(-c6ccccc6O)nnc5N)C4)cc3)CC2)C(C)(C)C)cc1 (mixture of isomers) [Example 77, rac-(2S,4R)-4-hydroxy-1-[rac-(2S)-2-[[7-[4-[2-[4-[3-[3-amino-6-(2-hydroxyphenyl)pyridazin-4-yl]oxy-1-piperidyl]phenoxy]ethyl]piperazin-1-yl]-7-oxo-heptanoyl]amino]-3,3-dimethyl-butanoyl]-N-[rac-(1S)-1-[4-(4-methylthiazol-5-yl)phenyl]ethyl]pyrrolidine-2-carboxamide] | 24 | 244
Cc1ncsc1-c1ccc([C@H](C)NC(=O)[C@@H]2C[C@@H](O)CN2C(=O)[C@@H](NC(=O)CCCCCCCCC(=O)N2CCN(CCOc3ccc(N4CCCC(Oc5cc(-c6ccccc6O)nnc5N)C4)cc3)CC2)C(C)(C)C)cc1 (mixture of isomers) [Example 78, rac-(2S,4R)-4-hydroxy-1-[rac-(2S)-2-[[10-[4-[2-[4-[3-[3-amino-6-(2-hydroxyphenyl)pyridazin-4-yl]oxy-1-piperidyl]phenoxy]ethyl]piperazin-1-yl]-10-oxo-decanoyl]amino]-3,3-dimethyl-butanoyl]-N-[rac-(1S)-1-[4-(4-methylthiazol-5-yl)phenyl]ethyl]pyrrolidine-2-carboxamide] | 20 | 63
Cc1ncsc1-c1ccc([C@H](C)NC(=O)[C@@H]2C[C@@H](O)CN2C(=O)[C@@H](NC(=O)CCCCCCCCCCC(=O)N2CCN(CCOc3ccc(N4CCCC(Oc5cc(-c6ccccc6O)nnc5N)C4)cc3)CC2)C(C)(C)C)cc1 (mixture of isomers) [Example 79, rac-(2S,4R)-4-hydroxy-1-[rac-(2S)-2-[[12-[4-[2-[4-[3-[3-amino-6-(2-hydroxyphenyl)pyridazin-4-yl]oxy-1-piperidyl]phenoxy]ethyl]piperazin-1-yl]-12-oxo-dodecanoyl]amino]-3,3-dimethyl-butanoyl]-N-[rac-(1S)-1-[4-(4-methylthiazol-5-yl)phenyl]ethyl]pyrrolidine-2-carboxamide] | 21 | 78
Cc1ncsc1-c1ccc([C@H](C)NC(=O)[C@@H]2C[C@@H](O)CN2C(=O)[C@@H](NC(=O)CCCCCCCCCCCCC(=O)N2CCN(CCOc3ccc(N4CCCC(Oc5cc(-c6ccccc6O)nnc5N)C4)cc3)CC2)C(C)(C)C)cc1 (mixture of isomers) [Example 80, rac-(2S,4R)-4-hydroxy-1-[rac-(2S)-2-[[14-[4-[2-[4-[3-[3-amino-6-(2-hydroxyphenyl)pyridazin-4-yl]oxy-1-piperidyl]phenoxy]ethyl]piperazin-1-yl]-14-oxo-tetradecanoyl]amino]-3,3-dimethyl-butanoyl]-N-[rac-(1S)-1-[4-(4-methylthiazol-5-yl)phenyl]ethyl]pyrrolidine-2-carboxamide] | 25 | 383
Cc1ncsc1-c1ccc([C@H](C)NC(=O)[C@@H]2C[C@@H](O)CN2C(=O)[C@@H](NC(=O)CCCCCCCCCCCCC(=O)N2CCN(CCOc3cccc(N4CCCC(Oc5cc(-c6ccccc6O)nnc5N)C4)c3)CC2)C(C)(C)C)cc1 (mixture of isomers) [Example 81, rac-(2S,4R)-4-hydroxy-1-[rac-(2S)-2-[[14-[4-[2-[3-[3-[3-amino-6-(2-hydroxyphenyl)pyridazin-4-yl]oxy-1-piperidyl]phenoxy]ethyl]piperazin-1-yl]-14-oxo-tetradecanoyl]amino]-3,3-dimethyl-butanoyl]-N-[rac-(1S)-1-[4-(4-methylthiazol-5-yl)phenyl]ethyl]pyrrolidine-2-carboxamide] | 34 | 504
Cc1ncsc1-c1ccc([C@H](C)NC(=O)[C@@H]2C[C@@H](O)CN2C(=O)[C@@H](NC(=O)CCCCCCCCC(=O)N2CCN(Cc3cccc(C(C)Oc4cc(-c5ccccc5O)nnc4N)c3)CC2)C(C)(C)C)cc1 (mixture of isomers) [Example 82, rac-(2S,4R)-4-hydroxy-1-[rac-(2S)-2-[[10-[4-[[3-[l-[3-amino-6-(2-hydroxyphenyl)pyridazin-4-yl]oxyethyl]phenyl]methyl]piperazin-1-yl]-10-oxo-decanoyl]amino]-3,3-dimethyl-butanoyl]-N-[rac-(1S)-1-[4-(4-methylthiazol-5-yl)phenyl]ethyl]pyrrolidine-2-carboxamide] | 62 | 586
Cc1ncsc1-c1ccc([C@H](C)NC(=O)[C@@H]2C[C@@H](O)CN2C(=O)[C@@H](NC(=O)CCCCCCCCCNC(=O)C(c2ccccc2)n2cc(-c3cc(-c4ccccc4O)nnc3N)cn2)C(C)(C)C)cc1 (mixture of isomers) [Example 88, rac-(2S,4R)-4-hydroxy-1-[rac-(2S)-2-[10-[[2-[4-[3-amino-6-(2-hydroxyphenyl)pyridazin-4-yl]pyrazol-1-yl]-2-phenyl-acetyl]amino]decanoylamino]-3,3-dimethyl-butanoyl]-N-[rac-(1S)-1-[4-(4-methylthiazol-5-yl)phenyl]ethyl]pyrrolidine-2-carboxamide] | 29 | 423
Cc1ncsc1-c1ccc([C@H](C)NC(=O)[C@@H]2C[C@@H](O)CN2C(=O)[C@@H](NC(=O)CCCCCC(=O)N2CCN(c3cccc(N4CCCC(Oc5cc(-c6ccccc6O)nnc5N)C4)c3)CC2)C(C)(C)C)cc1 (mixture of isomers) [Example 90, rac-(2S,4R)-4-hydroxy-1-[rac-(2S)-2-[[7-[4-[3-[3-[3-amino-6-(2-hydroxyphenyl)pyridazin-4-yl]oxy-1-piperidyl]phenyl]piperazin-1-yl]-7-oxo-heptanoyl]amino]-3,3-dimethyl-butanoyl]-N-[rac-(1S)-1-[4-(4-methylthiazol-5-yl)phenyl]ethyl]pyrrolidine-2-carboxamide] | 34 | 1320
Cc1ncsc1-c1ccc([C@H](C)NC(=O)[C@@H]2C[C@@H](O)CN2C(=O)[C@@H](NC(=O)CCCCCCCCC(=O)N2CCN(c3cccc(N4CCCC(Oc5cc(-c6ccccc6O)nnc5N)C4)c3)CC2)C(C)(C)C)cc1 (mixture of isomers) [Example 91, rac-(2S,4R)-4-hydroxy-1-[rac-(2S)-2-[[10-[4-[3-[3-[3-amino-6-(2-hydroxyphenyl)pyridazin-4-yl]oxy-1-piperidyl]phenyl]piperazin-1-yl]-10-oxo-decanoyl]amino]-3,3-dimethyl-butanoyl]-N-[rac-(1S)-1-[4-(4-methylthiazol-5-yl)phenyl]ethyl]pyrrolidine-2-carboxamide] | 44 | 600
Cc1ncsc1-c1ccc([C@H](C)NC(=O)[C@@H]2C[C@@H](O)CN2C(=O)[C@@H](NC(=O)CCCCCCCCCCC(=O)N2CCN(c3cccc(N4CCCC(Oc5cc(-c6ccccc6O)nnc5N)C4)c3)CC2)C(C)(C)C)cc1 (mixture of isomers) [Example 92, rac-(2S,4R)-4-hydroxy-1-[rac-(2S)-2-[[12-[4-[3-[3-[3-amino-6-(2-hydroxyphenyl)pyridazin-4-yl]oxy-1-piperidyl]phenyl]piperazin-1-yl]-12-oxo-dodecanoyl]amino]-3,3-dimethyl-butanoyl]-N-[rac-(1S)-1-[4-(4-methylthiazol-5-yl)phenyl]ethyl]pyrrolidine-2-carboxamide] | 45 | 560
Cc1ncsc1-c1ccc([C@H](C)NC(=O)[C@@H]2C[C@@H](O)CN2C(=O)[C@@H](NC(=O)CCCCCCCCCCCCC(=O)N2CCN(c3cccc(N4CCCC(Oc5cc(-c6ccccc6O)nnc5N)C4)c3)CC2)C(C)(C)C)cc1 (mixture of isomers) [Example 93, rac-(2S,4R)-4-hydroxy-1-[rac-(2S)-2-[[14-[4-[3-[3-[3-amino-6-(2-hydroxyphenyl)pyridazin-4-yl]oxy-1-piperidyl]phenyl]piperazin-1-yl]-14-oxo-tetradecanoyl]amino]-3,3-dimethyl-butanoyl]-N-[rac-(1S)-1-[4-(4-methylthiazol-5-yl)phenyl]ethyl]pyrrolidine-2-carboxamide] | 55 | 579
Cc1ncsc1-c1ccc(CNC(=O)[C@@H]2C[C@@H](O)CN2C(=O)[C@@H](NC(=O)CCCCCCCCC(=O)N2CCC(CNC(=O)C3CN(c4cc(-c5ccccc5O)nnc4N)CCN3c3ccccc3)CC2)C(C)(C)C)cc1 (mixture of isomers) [Example 97, 4-[3-amino-6-(2-hydroxyphenyl)pyridazin-4-yl]-N-[[1-[10-oxo-10-[[rac-(1S)-2,2-dimethyl-1-[rac-(2S,4R)-4-hydroxy-2-[[4-(4-methylthiazol-5-yl)phenyl]methylcarbamoyl]pyrrolidine-1-carbonyl]propyl]amino]decanoyl]-4-piperidyl]methyl]-1-phenyl-piperazine-2-carboxamide] | 40 | 1150

From patent publication US20230002367A1, “BIFUNCTIONAL COMPOUNDS” (Hoffmann-La Roche Inc., priority 2019, published 2023)
